The source of these data is patent publication US10709697B2, “Bis-amines, compositions, and uses related to CXCR4 inhibition” (Emory University, priority 2015, dated 2020).

One series deals with T1, CXCR4 (Homo sapiens, UniProt P61073).
T1 construct: endogenous in cells; host or cells: MDA-MB-231
Kind of series: Primary binding affinity screening (competition with biotinylated TN14003). How it is done:
The compounds were initially screened with a binding affinity assay. […] MDA-MB-231 cells were pre-incubated with compounds at concentrations of 1, 10, 100, and 1000 nM, then incubated with biotinylated TN14003 and streptavidin-conjugated rhodamine to determine the binding efficiency of the new compounds to the CXCL12 binding domain of CXCR4. […] Thus, this screening is a semi-quantitative, first pass measure of the level of activity.
For binding affinity assay, 2×10^4 MDA-MB-231 cells in 300 μL of cell culture medium were seeded in an 8-well slide chamber 2 days before the experiments were conducted. Various concentrations of different compounds (1, 10, 100, or 1000 nM) were added to the separate wells and incubated for 10 min at room temperature, and then the cells were fixed in 4% ice-cold paraformaldehyde. The cells were rehydrated in phosphate-buffered saline (PBS). The slides were subsequently incubated for 30 min at room temperature with 0.05 μg/mL biotinylated TN14003, washed three times with PBS, and incubated in streptavidin-rhodamine (1:150 dilution; Jackson ImmunoResearch Laboratories, West Grove, Pa.) for 30 min at room temperature. Finally, the slides were washed with PBS and mounted in an anti-fade mounting solution (Molecular Probes, Eugene, Oreg.), and the samples were analyzed on a Nikon Eclipse E800 microscope.

For series [1], the system named is carrageenan-induced mouse paw edema. Put plainly: In vivo suppression against carrageenan-induced paw edema. The following applies: for Carageenan: Table 3, mice dosed 10 mg of compound per kg; for inflammation-suppression percentage (paw edema): 10 mg/kg i.p. daily, female C57BL/6J mice, 74 h after carrageenan challenge. How it is done:
CXCR4 plays a role in the recruitment of inflammatory cells to sites of inflammation. Blocking CXCR4 is a therapeutic strategy in inflammatory diseases. A carrageenan-induced mouse paw edema model as an efficient model to evaluate the in vivo CXCR4 antagonistic activity for CXCR4 inhibitors.
Acute inflammation was induced by subcutaneous injection of 50 μL of λ-carrageenan (1% w/v in saline) into one of the hind paws of the female C57BL/6J mice (Jackson Laboratories); the other hind paw was injected with 50 μL of saline, which was used as a non-inflammation control. The selected compounds were dissolved in 10% DMSO and 90% of 45% (2-hydroxypropyl)-β-cyclodextrin (CD) in PBS. In the treatment group, compounds IIg, IIk, IIm and IIn were administered intraperitoneally (i.p.) at 10 mg/kg daily, while TN14003 was administered at 300 μg/kg, i.p., daily, 30 min following carrageenan challenge. The rationale for using 300 μg/kg for TN14003 was that this concentration was reported to be the minimum concentration needed to achieve the maximum efficacy of this compound in a […] metastasis animal model. See Yoon et al. CXC chemokine receptor-4 antagonist blocks both growth of primary tumor and metastasis of head and neck cancer in xenograft mouse models. Cancer Res., 67 (2007), pp. 7518-7524. Control animals received corresponding i.p. injections of the vehicle. The animals were sacrificed 74 h after carrageenan challenge and 2 h after the last injection of the selected compounds. The final paws were photographed and measured for thickness from the “palm” to the back of the paw with a caliper. These were compared to the volume of carrageenan-untreated contralateral paw to obtain the edema volume; the volume of the contralateral paw was subtracted from the volume of the carrageenan injected paw to obtain the edema volume. The inflammation-suppression percentage was calculated by comparing the drug-treated group to the control group.
On the technique in general: Carrageenan injected into the paw causes an acute inflammation.

Series [2] deals with CXCR4/CXCL12-mediated chemotaxis and invasion. Put plainly: Matrigel invasion assay. The series is classed as cell-based. The following applies: for Invasion: Table 3, concentration used 100 nM; for inhibition at 0.1 µM: single concentration of 100 nM, CXCL12 as chemoattractant, FIG. 2, read-out: inhibitory rate, Matrigel invasion. The text has this: To model in vitro metastasis, a Matrigel® invasion assay was used as the functional assay. […] A layer of Matrigel® matrix-coated permeable support (8 μm pore diameter) separates the upper and lower chambers.

The test system of series [3] is carrageenan-induced mouse paw edema. Put plainly: In vivo suppression against carrageenan-induced paw edema. As to conditions: 10 mg/kg i.p. daily; paw tissue histology.
[4] abbreviates: effective concentration = lowest concentration with significant reduction of rhodamine fluorescence, MDA-MB-231 cells, tested at 1, 10, 100, 1000 nM.

T1 sequence (P61073 whole entry): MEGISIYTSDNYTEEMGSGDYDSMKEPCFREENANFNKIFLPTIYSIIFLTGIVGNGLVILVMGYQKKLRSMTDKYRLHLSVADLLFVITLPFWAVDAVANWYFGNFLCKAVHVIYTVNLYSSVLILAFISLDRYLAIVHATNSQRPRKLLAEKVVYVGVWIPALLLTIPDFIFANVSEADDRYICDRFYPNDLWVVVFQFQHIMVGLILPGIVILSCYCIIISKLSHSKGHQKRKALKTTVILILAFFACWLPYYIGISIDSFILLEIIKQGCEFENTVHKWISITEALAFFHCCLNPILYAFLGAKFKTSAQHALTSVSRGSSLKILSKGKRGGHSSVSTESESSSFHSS

The compound `CCc1ccc(NCc2cccc(CNc3ccc(CC)cc3)n2)cc1` [2,6-Bis(4-ethylanilinomethyl)pyridine] yielded an EC at CXCR4 (Table 3) of 1 nM. Besides, the Carageenan in series [1] came out at 42.0%. This compound also gave an Invasion in series [2] of 64%.

Turning to `FC(F)(F)c1ccc(NCc2cccc(CNc3ccc(C(F)(F)F)cc3)n2)cc1` [2,6-Bis(4-trifluoromethylanilinomethyl)pyridine], the EC at CXCR4 (Table 3) was determined as 1 nM. The compound further had a Carageenan in series [1] of 20.3%. In series [2], this compound came in with an Invasion of 52%.

`c1cc(CN2CCOCC2)nc(CN2CCOCC2)c1` [2,6-Bis(morpholinylmethyl)pyridine] returned an EC on CXCR4 (Table 3) of 10 nM. The Carageenan in series [1] turned out to be 39.1%. In series [2], the Invasion is 63%.

For the compound `CN(Cc1cccc(CN(C)c2ccccc2)n1)c1ccccc1` [IId, N,N′-(Pyridine-2,6-diylbis(methylene))bis(N-methylaniline)], the melting point (as a rule, the temperature, or range, at which the solid turns liquid) fell in the range of 91 to 93 °C. At CXCR4 (setting [4]), this compound showed an EC of 1000 nM.

On CXCR4 (setting [4]), `COc1cccc(CN(C)Cc2cccc(CN(C)Cc3cccc(OC)c3)n2)c1` [IIk, N,N′-(Pyridine-2,6-diylbis(methylene))bis(1-(3-methoxyphenyl)-N-methylmethanamine)] registered an EC of 10 nM. Further, the “inflammation-suppression percentage (paw edema)” value in series [1] was determined as 31.0%. In series [2], the inhibition at 0.1 µM came out at 76.7%.

For `CN(Cc1ccccn1)Cc1cccc(CN(C)Cc2ccccn2)n1` [IIn, N,N′-(Pyridine-2,6-diylbis(methylene))bis(N-methyl-1-(pyridin-2-yl)methanamine)], the EC at CXCR4 (setting [4]) stood at 10 nM. Besides, the “mouse paw inflammation and damage in histological assay” value in series [3] is “significantly attenuated”. The “inflammation-suppression percentage (paw edema)” value in series [1] was found to be 50%. Besides, in series [2], the inhibition at 0.1 µM is 72.6%.

Regarding `c1cc(CN2CCCCC2)ccc1CN1CCCCC1` [Ib, 1,4-Bis(piperidin-1-ylmethyl)benzene], the melting point lay in the range of 84 to 86 °C. At CXCR4 (setting [4]), the EC is 10 nM. Also, the inhibition at 0.1 µM in series [2] was below 50%.

In the case of `c1cc(CN2CCOCC2)ccc1CN1CCOCC1` [Ic, 1,4-Bis(morpholinomethyl)benzene], the melting point was in the range of 113 to 115 °C. The compound further gave an EC at CXCR4 (setting [4]) above 1000 nM.

`CN(Cc1ccc(CN(C)c2ccccc2)cc1)c1ccccc1` [Id, N,N′-(1,4-Phenylenebis(methylene))bis(N-methylaniline)] yielded a melting point of 77 to 79 °C. The same compound had an EC on CXCR4 (setting [4]) of 1000 nM.

`CN(Cc1ccc(CN(C)c2ccc(F)cc2)cc1)c1ccc(F)cc1` [Ie, N,N′-(1,4-phenylenebis(methylene))bis(4-fluoro-N-methylaniline)] yielded a melting point of 78 to 80 °C. In addition, the EC at CXCR4 (setting [4]) is given as 100 nM. Moreover, the inhibition at 0.1 µM in series [2] amounted to 66.4%.

For `CN(Cc1ccc(F)cc1)Cc1ccc(CN(C)Cc2ccc(F)cc2)cc1` [Ij, N,N′-(1,4-Phenylenebis(methylene))bis(1-(4-fluorophenyl)-N-methylmethanamine)], the melting point was in the range of 80 to 82 °C. Also, the EC on CXCR4 (setting [4]) was above 1000 nM.

Take `c1ccc(NCc2ccc(CNc3ccccn3)cc2)nc1` [WZ811, reference compound]: the EC at CXCR4 (Table 3) was determined as 10 nM. The compound also displayed a Carageenan in series [1] of 40%. Further, in series [2], the Invasion is recorded as 90%.
